Here are results for four compounds from patent publication US20210349077A1, “Method of quantifying induced membrane permeability and of screening compounds able to prevent said permeability” (Zarbio, priority 2020, published 2021).

Experiment [1] in a line: Flow cytometric calcium permeabilization of phosphatidylserine liposomes (DiD membrane probe, Fluo-3 calcium probe). Type of experiment: biochemical. The conditions noted are these: for permeability of liposomes to calcium: peptide stock in DMSO, final concentration 10 μM; for channel formation / permeabilization of membranes to calcium: summary statement, FIG. 10 and 12. The source says: (§1) Unilamellar liposomes are created with Fluo-3 membrane-impermeant fluorescent dye sensitive to the concentration of calcium (an example of ion sensitive probe, ISP, at the FIG. 2). The buffer for the created liposomes is calcium-free, and can contain calcium-chelating agents, such as EGTA or EDTA. Both calcium-free and calcium-bound Fluo-3 effectively absorb light with wavelength of 488 nm (one of typical lasers used in flow cytometers, blue light). […] Measuring the fluorescence at 520 nm allows to distinguish the liposomes which contain free calcium and those which are impermeant to calcium.
(§2) To identify liposomes in the flow, lipids can be supplemented with a lipophilic dye such as 1,1′-dioctadecyl-3,3,3′,3′-tetramethylindodicarbocyanine (DiD), which serves as membrane probe (MP at the FIG. 2). […] However, after ion channels are formed in the particular liposome, the electrolytes are equilibrated between inside and outside of the liposome. Therefore, due to the presence of calcium outside, the liposomes with the channels will have high free calcium, so Fluo-3 will have intensive fluorescence.
(§3) In the flow cytometer, the appearance of channels is visible as increasing proportion of calcium-loaded liposomes compared with calcium-free liposomes. When every liposome becomes permeant to calcium, all liposomes will be presented as loaded with calcium. This condition is used for normalization and can be achieved in control experiments by the addition of calcium ionophore such as ionomycin.
Liposomes (400 nm) were made of phosphatidylserine with DiD and were extruded in the buffer without (A-C) or with (D-I) 1 mM Fluo-3. […] Liposomes with membrane but without calcium-sensitive probe in the presence of calcium. • D, E, F (Second row). Liposomes with both membrane and calcium-sensitive probe in the presence of calcium. • G, H, I (Third row). Liposomes with both membrane and calcium-sensitive probe in the absence of calcium. • A, D, G (First column). Liposomes only. • B, E, H (Second column). Liposomes with added 5 μM Aβ25-35. • C, F, I (Third column). Liposomes with added 5 μM Aβ25-35 followed by ionomycin.
Liposomes made of phosphatidylserine and contained both DiD and Fluo-3. In a calcium-containing medium, membranes are not permeant to calcium, so there is a minimal number of liposomes with increased levels of green fluorescence (A). […] Increasing concentration of amyloid peptide increases the number of permeant liposomes (C, D).
This figure summarizes data from experiments, described at the FIG. 10. Liposomes made of phosphatidylserine and contained both DiD and Fluo-3 were treated by various concentrations of Aβ25-35. For the treatment, the same stock solution of peptide in distilled water was added to the suspension of liposomes in a calcium-containing medium. The gate to count the number of permeabilized vesicles is shown at the density plot (left graph).
Phosphatidylserine liposomes were prepared to contain both DiD and Fluo-3 as described for previous figures. Liposomes were tested to be permeabilized by Aβ25-35. • A. Control PS liposomes with calcium (60 μM). Limited number of events is registered in the area corresponding to permeabilized vesicles. • B. Effect of Aβ1-42 (8 μM). […] Effect of ionomycin (50 nM, positive control).
In this experiment, stock solution of peptides was prepared in DMSO to extend the testing to the peptide which are not soluble in water-based excipients. […] There is no difference between the effects of the peptide that was dissolved initially in DMSO (“Lip+Pep/DMSO”) and water (not shown here). • C.
The permeabilization to calcium ions will be described first as an example. To detect calcium transmembrane transfer, calcium-sensitive probes are used, such as Fluo-3 or Fluo-4 which dramatically increase their fluorescence upon binding calcium. Liposomes are formed in a calcium-free medium containing calcium-sensitive probe. […]
Background: Flow cytometry measures light scatter and fluorescence of single cells or particles in a stream.

The nature of experiment [2]: Flow cytometric fluorescence test of phosphatidylcholine liposomes (DiD, Fluo-3). It counts as biochemical.
Text: as §1, §2, §3
Liposomes (400 nm) were made of phosphatidylcholine with DiD and were extruded in the buffer containing 1 mM Fluo-3 (A-H) or without Fluo-3 (I, J).
The effect of Aβ25-35 was the same in calcium-free medium with EGTA (F,G).

In the case of “Aβ31-35: amyloid-beta peptide fragment tested at 10 μM from DMSO stock (IIGLM; Amyloid-beta protein 42; UniProt P05067 702-706, looked up, fragment)”, the “permeability of liposomes to calcium” value in experiment [1] is reported as “did not affect the permeability of liposomes”.

Consider Aβ1-42: full-length amyloid peptide, for which, in experiment [1] (8 μM peptide, calcium 60 μM, compared with control), the “number of events in the area corresponding to permeabilized vesicles” value is on record as “does not exceed same number observed in control experiment”. The “channel formation / permeabilization of membranes to calcium” value in experiment [1] is given as “does not create channels permeabilizing membranes to calcium”.

“Aβ25-35: short fragment of beta-amyloid peptide that forms membrane channels (GSNKGAIIGLM; Amyloid-beta protein 42; UniProt P05067 696-706, looked up, fragment)”: in experiment [1], the “time for effects of the peptide to develop after addition to liposomes” value is given as “within the first minute”, the “permeability of liposomes to calcium” value is listed as “permeabilized liposomes” and the “channel formation / permeabilization of membranes to calcium” value is given as “efficiently permeabilize multiple liposomes”. Further, the “liposomes made permeant to calcium” value in experiment [1] (2 μM peptide, calcium-containing medium) is “makes some of liposomes permeant to calcium”. Further, the “green (Fluo-3) signal from vesicles” value in experiment [1] (5 μM peptide, 400 nm liposomes with 1 mM Fluo-3, extravesicular calcium present) was “increased green signal from vesicles only in the presence of both Fluo-3 and calcium”. In addition, the “green signal from vesicles” value in experiment [1] (5 μM peptide, DiD-only liposomes or calcium-free buffer (EGTA)) is “did not have effect”. The “change in number of permeabilized liposomes on prolonged incubation” value in experiment [1] (incubation with the peptide for up to one hour) is “does not change the number of permeabilized liposomes”. The “liposomes of total number that become permeant to calcium” value in experiment [1] (phosphatidylserine liposomes, various conditions (FIG. 11)) is “up to 10%”. For the same compound, the “dependence of number of permeabilized liposomes on amount of added peptide” value in experiment [1] (various concentrations, stock in distilled water, calcium-containing medium) is “linearly dependent on the amount of added peptide”. Moreover, the “effect on green signal compared with calcium-containing medium” value in experiment [2] (calcium-free medium with EGTA) was “the same”. For the same compound, in experiment [2] (concentrations above 10 μM (20 μM, 50 μM), 400 nm liposomes with 1 mM Fluo-3, calcium present), the “green signal from vesicles” value was “slightly but reproducibly increased green signal from vesicles”. In addition, the “shift of green fluorescence distribution” value in experiment [2] (liposomes extruded without Fluo-3) is recorded as “still shifted the distribution upward”.

In the case of `C[C@H](CCC(=O)O)C[C@H](C)C[C@H](C)C(=O)/C=C(\O)[C@H](C)C[C@H](C)C/C=C/[C@@H](C)[C@@H](O)[C@@H](C)[C@@H](O)C[C@@H]1CC[C@@](C)([C@H]2CC[C@@](C)([C@@H](C)O)O2)O1` [ionomycin], the “permeabilization of liposomes (positive control)” value in experiment [1] (50 nM, calcium 60 μM) is recorded as “permeabilizes all liposomes”. For the same compound, the “effect of ionomycin added following 5 μM Aβ25-35” value in experiment [1] (DiD-only vesicles and in the absence of calcium) is recorded as “did not produce any effect”. The “Fluo-3 signal after ionomycin added following 5 μM Aβ25-35” value in experiment [1] (liposomes with Fluo-3, calcium present) was “did not further increase the Fluo-3 signal from vesicles with low DiD signal but additionally shifted upwards the part of the distribution with high DiD signal”. The “fluorescence after ionophore addition” value in experiment [2] (liposomes with 1 mM Fluo-3, calcium present) is reported as “significantly increased fluorescence”.
